The source of these data is patent publication US9763445B2, “Safened herbicidal compositions comprising a pyridine carboxylic acid herbicide” (Dow AgroSciences, LLC, priority 2014, dated 2017).

Where two headings read alike, the source gives them in different places.

The subject of assay [1] is nutsedge (CYPES). Nature of the assay: Postemergence greenhouse trial, % visual injury on nutsedge. It is filed as in vivo, Cyperus esculentus. To be noted: for % visual injury, observed (Ob): CYPES. Summed up: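 Injury was scored visually (0 = none, 100 = complete kill) 20–22 d after track-sprayer application at 187 L/ha, compared with solvent-sprayed controls. Test plants at the 2–3 true leaf stage; herbicide (g ae/ha) plus cloquintocet-mexyl safener (g ai/ha) in crop-oil-containing spray; expected mixture response by Colby.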

Assay [2] concerns cornflower (CENCY). Put plainly: Postemergence greenhouse trial, % visual injury on cornflower. It is filed as in vivo, Centaurea cyanus or Cyanus segetum. Here is the method:
(§1) Seeds of the desired test plant species were planted in Sun Gro MetroMix® 306 planting mixture, which typically has a pH of 6.0 to 6.8 and an organic matter content of about 30 percent, in plastic pots with a surface area of 103.2 square centimeters (cm^2). When required to ensure good germination and healthy plants, a fungicide treatment and/or other chemical or physical treatment was applied. The plants were grown for 7-36 days (d) in a greenhouse with an approximate 14-hour (h) photoperiod which was maintained at about 23° C. during the day and 22° C. during the night. Nutrients and water were added on a regular basis and supplemental lighting was provided with overhead metal halide 1000-Watt lamps as necessary. The plants were employed for testing when they reached the second or third true leaf stage.
(§2) Weighed amounts of technical material were dissolved in a volume of 97:3 volume per volume (v/v) acetone/dimethyl sulfoxide (DMSO) to stock solutions. […] The concentrated stock solutions were diluted with an aqueous mixture of 1.5% v/v of Agri-dex crop oil concentrate to provide the appropriate application rates. Compound requirements are based upon a 12 milliliter (mL) application volume at a rate of 187 liters per hectare (L/ha). Stocks solutions of the safeners were prepared following the same procedure. Spray solutions of the safeners and experimental compound mixtures were prepared by adding the stock solutions to the appropriate amount of dilution solution to form a 12 mL spray solution in two-way combinations. Formulated compounds were applied to the plant material with an overhead Mandel track sprayer equipped with 8002E nozzles calibrated to deliver 187 L/ha over an application area of 0.503 square meters (m^2) at a spray height of 18 inches (43 centimeters (cm)) above average plant canopy. Control plants were sprayed in the same manner with the solvent blank. All herbicide application (component a) rates are in g ae/ha and all safener (component b) rates are in g ai/ha.
(§3) The treated plants and control plants were placed in a greenhouse as described above and watered by sub-irrigation to prevent wash-off of the test compounds. After 20-22 d, the condition of the test plants as compared with that of the control plants was determined visually and scored on a scale of 0 to 100 percent where 0 corresponds to no injury and 100 corresponds to complete kill. The condition of the test plants was compared with that of the control plants as determined visually and scored on a scale of 0 to 100 percent, where 0 corresponds to no injury and 100 corresponds to complete kill. Colby's equation was used to determine the herbicidal effects expected from the mixtures.
(§4) The safener cloquintocet-mexyl was combined with compound 1, compound 2, compound 3, compound 7, compound 8, compound 9, compound 10, compound 11, compound 12, compound 13, compound 14, compound 15, compound 16, compound 17, compound 18, compound 19, and compound 20, and applied to spring wheat (TRZAS), winter wheat (TRZAW), and spring barley (HORVS) and the phytotoxicity of the herbicidal compositions was measured. […]

For assay [3], the system named is wild buckwheat (POLCO). Nature of the assay: Postemergence greenhouse trial, % visual injury on wild buckwheat. The class given is in vivo, Polygonum convolvulus. The following applies: alone, 35 g/ha. Summed up:
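Visual injury, 0 (none) to 100 (complete kill), rated 20-22 d after overhead track-sprayer application at 187 L/ha; Colby's equation gave expected mixture responses. Herbicide (g ae/ha) and cloquintocet-mexyl safener (g ai/ha) diluted in aqueous 1.5% v/v Agri-dex, applied to weeds at 2–3 true leaves.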

Assay [4] has as its system wild mustard (SINAR). Nature of the assay: Postemergence greenhouse trial, % visual injury on wild mustard. The following applies: Brassica, post-emergence, read-out: % visual injury, Ob. It is filed as in vivo, Sinapis arvensis. In a few lines: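 Herbicide rates g ae/ha, safener (cloquintocet-mexyl) rates g ai/ha; spray carrier 1.5% v/v crop oil concentrate, 187 L/ha, 2nd–3rd leaf stage. Rating: visual % injury at 20-22 d.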

In assay [5] the test system is shepherd's purse (CAPBP). Put plainly: Postemergence greenhouse trial, % visual injury on shepherd's purse. The class given is in vivo, Capsella bursa-pastoris. Here is the method:
as §1, §2, §3, §4

Assay [6] has as its system prickly lettuce (LACSE). Nature of the assay: Postemergence greenhouse trial, % visual injury on prickly lettuce. The class given is in vivo, Lactuca serriola. Here is the method:
as §1, §2
as §3, with “mixtures. […]” for “mixtures.”

Setting [7] is: CENCY, compound 4.380 g/ha, CQC-m 0.
Setting [8] is: CENCY, compound 8.75 g/ha, CQC-m 0.
Setting [9] is: CENCY, compound 17.5 g/ha, CQC-m 0.
Setting [10] is: CENCY, compound 35 g/ha, CQC-m 0.
[11] abbreviates: CENCY, compound 70 g/ha, CQC-m 0.
The mark [12] stands for this setting: CAPBP, compound 4.380 g/ha, CQC-m 0.
The mark [13] stands for this setting: CAPBP, compound 17.5 g/ha, CQC-m 0.
Setting [14] is: CAPBP, compound 70 g/ha, CQC-m 0.

Turning to `Nc1c(F)c(-c2ccc3cc[nH]c3c2F)nc(C(=O)O)c1Cl` [compound 1], the “% visual injury, observed (Ob)” value in assay [1] (compound 1 alone 20 g/ha) and in assay [1] (compound 1 alone 40 g/ha) was 35% throughout. The “% visual injury, Ob” value was found to be 80% in assay [1] (alone, 35 g/ha); 100% in assay [2] (alone, 4.375 g/ha); 100% in assay [2] (alone, 8.75 g/ha); 100% in assay [2] (alone, 35 g/ha); 99% in assay [3]; 70% in assay [5] (alone, 4.375 g/ha). Besides, the “% visual injury, Ob” value was 100% in assay [5] (alone, 8.75 g/ha); 100% in assay [5] (alone, 17.5 g/ha); 100% in assay [5] (alone, 35 g/ha); 100% in assay [5] (alone, 70 g/ha); 70% in assay [6] (alone, 4.375 g/ha); 93% in assay [6] (alone, 8.75 g/ha). Moreover, the “% visual injury, Ob” value in assay [6] (alone, 17.5 g/ha) is 100%; in assay [6] (alone, 35 g/ha), 100%; in assay [6] (alone, 70 g/ha) it was 100%. Besides, the pest or weed control at 4.375 g/ha in assay [4] (alone, 4.375 g/ha) came out at 85%. The pest or weed control at 8.75 g/ha in assay [4] (alone, 8.75 g/ha) was 88%. Also, the pest or weed control at 17.5 g/ha in assay [4] (alone, 17.5 g/ha) stood at 98%. Besides, the pest or weed control at 35 g/ha in assay [4] (alone, 35 g/ha) amounted to 99%. Further, in assay [4] (alone, 70 g/ha), the pest or weed control at 70 g/ha amounted to 100%.
For the molecule `CO/C=N/c1c(F)c(-c2ccc3cc[nH]c3c2F)nc(C(=O)OC)c1Cl` [compound 10], the “% visual injury, Ob” value in assay [2] (setting [7]) is 100%; in assay [2] (setting [8]), 100%; in assay [2] (setting [9]), 100%; in assay [2] (setting [10]) it was 100%; in assay [2] (setting [11]), 100%; in assay [5] (setting [12]), 30%. Besides, the “% visual injury, Ob” value is recorded as 100% in assay [5] (setting [13]); 100% in assay [5] (setting [14]); 95% in assay [6] (LACSE, compound 4.380 g/ha, CQC-m 0); 100% in assay [6] (LACSE, compound 8.75 g/ha, CQC-m 0); 100% in assay [6] (LACSE, compound 17.5 g/ha, CQC-m 0); 100% in assay [6] (LACSE, compound 35 g/ha, CQC-m 0). Besides, the “% visual injury, Ob” value in assay [6] (LACSE, compound 70 g/ha, CQC-m 0) stood at 100%. For the same molecule, in assay [4] (SINAR, compound 4.380 g/ha, CQC-m 0), the pest or weed control at 4.38 g/ha turned out to be 90%. In assay [4] (SINAR, compound 8.75 g/ha, CQC-m 0), the pest or weed control at 8.75 g/ha worked out at 93%. Besides, the pest or weed control at 17.5 g/ha in assay [4] (SINAR, compound 17.5 g/ha, CQC-m 0) came out at 97%. In addition, the pest or weed control at 35 g/ha in assay [4] (SINAR, compound 35 g/ha, CQC-m 0) was 100%. In addition, the pest or weed control at 70 g/ha in assay [4] (SINAR, compound 70 g/ha, CQC-m 0) turned out to be 100%.
On to `COC(=O)c1nc(-c2ccc3cc[nH]c3c2F)c(F)c(N)c1OC` [compound 12], for which the “% visual injury, Ob” value in assay [2] (setting [7]) turned out to be 85%; in assay [2] (setting [8]), 95%; in assay [2] (setting [9]), 100%; in assay [2] (setting [10]) it was 100%; in assay [2] (setting [11]) it was 100%; in assay [5] (setting [12]) it was 70%. Also, the “% visual injury, Ob” value in assay [5] (setting [13]) and in assay [5] (setting [14]) was 100% throughout.
